Here are results for 60 compounds from the METLIN SMRT retention time set (Domingo-Almenara et al. 2019).

This data set in a line: gradient 5% acetonitrile 3 min, to 50% in 2 min, to 85% in 15 min, held 3 min, 100 µL/min. Particulars: column: Zorbax Extend-C18 2.1 x 50 mm; eluents: water / acetonitrile, 0.1% formic acid. A digest of the protocol:
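Over 3 months, pure standards in mixtures of ~100 molecules were run by HPLC coupled to a quadrupole time-of-flight mass spectrometer in positive and negative ionization mode. The column was a Zorbax Extend-C18 (2.1 × 50 mm, 1.8 μm) at 100 μL/min, eluted with water and acetonitrile each holding 0.1% formic acid, with 40 μL dead and 900 μL dwell volumes. Retention time was determined from adduct peaks chosen by software and checked manually.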
Consider `Cc1ccc(Cl)cc1NC(=O)C1CC(=O)N(c2ccc3c(c2)CCN3C(=O)C2CC2)C1` (stereo not given), for which the RP-LC retention time worked out at 821 s.

`Cc1ccc(NC(=O)Cn2c(=O)n(-c3ccccc3)c(=O)c3c2cc(C)n3C)cc1Cl` showed an RP-LC retention time of 927 s.

On to `CN(CCOC(=O)c1cccs1)Cc1ccccc1`, for which the RP-LC retention time stood at 623 s.

As to `Cc1nnc2n1CCC(N(C)S(=O)(=O)c1ccccc1F)CC2` (stereo not given), the RP-LC retention time worked out at 634 s.

Turning to `CCCCN(C)c1nc(-c2ccc(C)cc2)nc2ccccc12`, the RP-LC retention time worked out at 819 s.

The compound `COCC(=O)Nc1ccc2nc(N3CCN(Cc4ccccc4OC)CC3)cc(C(=O)O)c2c1` yielded an RP-LC retention time of 573 s.

With `CCC(=O)N1CCC(Oc2nccnc2N(C)C)C1` (stereo not given), the RP-LC retention time stood at 616 s.

`Cc1c(C(=O)C(=O)Nc2ccc3c(c2)OCCO3)c2ccccc2n1C` registered an RP-LC retention time of 861 s.

As to `Cc1ccc(CNC(=O)c2ccc(-c3cncnc3)nc2)o1`, the RP-LC retention time turned out to be 678 s.

As for `Cc1ccc2nc(C)c(NC(=O)CSCc3ccccc3)c(=O)n2c1`, the RP-LC retention time was 662 s.

In turn, `CCc1nc(-c2csc(S(=O)(=O)N3CCCC(C(=O)Nc4cc(C)on4)C3)c2)no1` (stereo not given) displayed an RP-LC retention time of 896 s.

Compound `Cn1c(=O)n(CC(=O)N2CCOCC2)c(=O)c2cnc(-c3ccccc3)nc21` registered an RP-LC retention time of 767 s.

`COc1ccccc1CNC(=O)C1CC(=O)N(c2n[nH]c3cccc(F)c23)C1` (stereo not given) displayed an RP-LC retention time of 711 s.

The compound `COc1ccc(-c2nc(-c3ccc4c(c3)ncn4CCC(=O)N3CCCC3)no2)cc1` yielded an RP-LC retention time of 742 s.

For the compound `CCCCNC(=O)CC1CCN(C(=O)c2[nH]c(C)c(C)c2C)CC1`, the RP-LC retention time came to 764 s.

Compound `Cc1cccc(N2CC(C(=O)NC3CCCC3)CC2=O)c1` (stereo not given) showed an RP-LC retention time of 767 s.

Compound `CN1c2ccccc2C(=O)NC12CCN(C(=O)c1ccccc1)CC2` displayed an RP-LC retention time of 700 s.

For the compound `O=C(Nc1ccc(Nc2ccc(-n3cccn3)nn2)cc1)Nc1ccccc1Cl`, the RP-LC retention time worked out at 791 s.

In the case of `O=C(Nc1nccs1)c1ccc(Cl)c(S(=O)(=O)N2CCOCC2)c1`, the RP-LC retention time was 729 s.

`C=CCN1C(=O)COc2ccc(-c3nc(NC(=O)C4CC4)sc3C)cc21`: the RP-LC retention time came to 887 s.

Regarding `CC(C)C(=O)Oc1ccc(CO)cc1[C@H](CCN(C(C)C)C(C)C)c1ccccc1`, the RP-LC retention time was 830 s.

`Cc1cc(C)cc(C(=O)N2C[C@@H]3C[C@H](NC(=O)c4cccnc4)[C@H]2C3)c1` registered an RP-LC retention time of 658 s.

Turning to `Cc1ccc(CNC(=O)CCNc2c(-c3cccc(F)c3)nc3cnccn23)o1`, the RP-LC retention time was found to be 700 s.

`Cn1cc2c3c(cccc31)CN(C(=O)Nc1ccc(Br)cc1F)CC2` gave an RP-LC retention time of 1000 s.

As for `CCN(CC)C(=O)c1cc2c(s1)CCC(C(=O)N1CCN(c3ccccn3)CC1)C2` (stereo not given), the RP-LC retention time was 629 s.

Take `Fc1cc(F)cc(-c2nnc(Cc3nc(-c4ccc(Br)cc4)no3)o2)c1`: the RP-LC retention time amounted to 1150 s.

Regarding `Cc1cc(N2CCN(C(=O)Nc3ccc(C)c(C)c3)CC2)nc(N2CCOCC2)n1`, the RP-LC retention time was 666 s.

In the case of `CCn1ccc(C(=O)N2CCCn3nc(-c4cccs4)cc3C2)n1`, the RP-LC retention time turned out to be 748 s.

Turning to `O=C(c1ccoc1)N1CCC(N2CCc3ccccc32)CC1`, the RP-LC retention time was determined as 830 s.

In turn, `CCOC(=O)Cc1sc(Nc2nc(C)cc(C)n2)nc1-c1ccccc1` registered an RP-LC retention time of 989 s.

For the compound `CCCn1c(=O)c(C)nc2cc(-c3noc(C4CC(=O)N(c5ccc(C)c(C)c5)C4)n3)ccc21` (stereo not given), the RP-LC retention time was found to be 1050 s.

`COCC(=O)Nc1ccc2c(c1)CN(C(=O)c1ccccc1)CC2` showed an RP-LC retention time of 658 s.

`COC(=O)c1ccc2c(=O)n(Cc3ccc(F)cc3)c(N3CCCC3)nc2c1`: the RP-LC retention time is 1060 s.

Regarding `NC(=O)c1cc(-c2ccccc2)n[nH]1`, the RP-LC retention time was 623 s.

Compound `CC(C)CCN1CCC(C2CCN(C(=O)c3ccncc3)C2)CC1` (stereo not given) returned an RP-LC retention time of 556 s.

`CCCC(=O)N1CCCC1COc1ccc(C(=O)NC2CC2)cc1` (stereo not given) registered an RP-LC retention time of 717 s.

In turn, `Cc1ccc(S(=O)(=O)N2CCC(c3nc(-c4ccncc4)no3)CC2)cc1C` came in with an RP-LC retention time of 983 s.

`Cc1oc2c(c1C(=O)Nc1ccc(C(F)(F)F)cc1)C1=NC(C)(C)CN1C=N2` displayed an RP-LC retention time of 728 s.

The compound `CCOc1cc(CN2CCCC2c2cc(C)no2)ccc1OCC(N)=O` (stereo not given) had an RP-LC retention time of 580 s.

In turn, `CCCCNC(=O)c1cnn(-c2cc(-c3nc(C)no3)ccn2)c1C` returned an RP-LC retention time of 853 s.

Take `O=C(Nc1ccc(Cl)cc1)C1CCN(C(=O)C2Sc3ccccc3NC2=O)CC1` (stereo not given): the RP-LC retention time came to 819 s.

`Cc1ccc(-c2noc(Cc3nc(-c4ccc(Cl)cc4)cs3)n2)cc1` had an RP-LC retention time of 1040 s.

`COc1ccc(NC(=O)Cn2c(=O)c3cc(C4CC4)nn3c3ncccc32)cc1Cl` showed an RP-LC retention time of 807 s.

With `O=S(=O)(Cc1ccccc1)N1CCC[C@H]1c1nc(-c2ccc(F)cc2)n[nH]1`, the RP-LC retention time came out at 819 s.

`COc1ccc(-c2nc(C3CC(=O)N(c4ccc(F)c(Cl)c4)C3)no2)c(OC)c1` (stereo not given) showed an RP-LC retention time of 1000 s.

Regarding `CCCCC(CC)C(=O)Nc1nc(-c2ccc(C(C)C)cc2)cs1` (stereo not given), the RP-LC retention time worked out at 1390 s.

In turn, `COCc1nncn1C1CCN(S(=O)(=O)c2ccc(C(F)(F)F)cc2)CC1` came in with an RP-LC retention time of 764 s.

For `COCCCNC(=O)N1CCCC(C)(C(=O)NCc2ccc(C)cc2)C1` (stereo not given), the RP-LC retention time came to 720 s.

Compound `Cc1nc(N2CCN(c3ccccn3)CC2)c2c3c(sc2n1)CCC3` yielded an RP-LC retention time of 569 s.

For the compound `O=C(CN1CCN(Cc2nc(-c3ccc(F)cc3)cs2)CC1)NCc1ccco1`, the RP-LC retention time came to 595 s.

For the compound `Cc1ccc(S(=O)(=O)N2CCC(c3cc4n(n3)CCCN(C)C4=O)CC2)cc1C`, the RP-LC retention time was 806 s.

Consider `O=C(Cc1nnc2cc(-c3nc(C4CC4)no3)ccn12)NC1CCCCC1`, for which the RP-LC retention time turned out to be 737 s.

For the compound `Cc1cc(Cl)ccc1-n1ncc2c(N3CCN(C)CC3)ncnc21`, the RP-LC retention time amounted to 633 s.

On to `COc1cccc(S(=O)(=O)N2CCC3(C2)C(=O)N(C)c2ccc(OC)cc23)c1` (stereo not given), for which the RP-LC retention time is 904 s.

`Cc1cccc(NC(=O)C2CC(=O)N(c3ccc4c(c3)CCN4C(=O)C3CC3)C2)c1` (stereo not given): the RP-LC retention time came out at 816 s.

Compound `COc1cc(OC)c(NC(=O)NCC(c2cccnc2)c2cn(C)c3ccccc23)cc1Cl` (stereo not given) had an RP-LC retention time of 741 s.

The compound `COc1ccc(-c2ncc3c(n2)CCN(C(=O)Nc2cccc(Cl)c2C)C3)cc1` gave an RP-LC retention time of 1170 s.

For `CCn1cc(-c2ccc(Cl)cc2)cc1C(=O)N1CCOCC1`, the RP-LC retention time was determined as 953 s.

`COc1ccccc1NC(=O)NCC(O)c1ccsc1` (stereo not given) came in with an RP-LC retention time of 684 s.

On to `COC(=O)c1c(C)c(C(=O)C(C)N(Cc2ccc(F)cc2)C(=O)C2CCC2)c(C)n1C` (stereo not given), for which the RP-LC retention time stood at 1040 s.
